The record followed here is patent US9593136B2 (priority 2011, dated 2017).

In brackets after ≈: the same amount, converted by molar mass. Like-named read-outs stand apart in the source and are kept apart here.

Assay [1] relates to Mtb H37Rv (ATCC 27294). Description: microbe, parasite or virus in culture. It counts as cell-based, Mycobacterium tuberculosis. The following applies: for MIC: Mycobacterium tuberculosis.
Assay [2] deals with S. pneumonia. Description: MIC against S. pneumonia. Conditions: Table 1. In kind it is cell-based. The method, then:
(§1) The following compounds have been synthesized and tested for their activities against bacteria (Table 1) and their abilities to inhibit Dxr (Table 2). MIC is determined as described in Yendapally et al. (Journal of Medicinal Chemistry 2008, 51, 1487); and IC50 is determined as described in Henriksson et al. (Journal of Biological Chemistry 2007, 282, 19905).

In assay [3] the test system is S. aureus (MSSA). Briefly: microbe, parasite or virus in culture. In kind it is cell-based. The following applies: Staphylococcus aureus, MSSA, read-out: MIC S. aureus (MSSA).
The test system of assay [4] is P. aeruginosa. Description: MIC against P. aeruginosa. In kind it is cell-based. Conditions: Pseudomonas aeruginosa; Table 1. The method, then:
as §1

Assay [5] has as its system Acinetobacter. Description: microbe, parasite or virus in culture. The following applies: Acinetobacter, read-out: MIC Acinetobacter. It counts as cell-based.
Assay [6] concerns E. faecalis. Briefly: microbe, parasite or virus in culture. It counts as cell-based. The following applies: Enterococcus faecalis, read-out: MIC E. faecalis.
Assay [7] deals with MRSA NRS 70. Briefly: microbe, parasite or virus in culture. It counts as cell-based, S. aureus. The following applies: Staphylococcus aureus, read-out: MIC MRSA NRS 70.
The test system of assay [8] is Klebsiella. Briefly: MIC against Klebsiella. In kind it is cell-based. The following applies: Table 1. The protocol: as §1
The test system of assay [9] is E. coli tolc. Description: microbe, parasite or virus in culture. The following applies: Escherichia coli, read-out: MIC E. coli tolc. It counts as cell-based.
Assay [10] concerns B. anthracis. Briefly: microbe, parasite or virus in culture. Conditions: Bacillus anthracis, read-out: MIC B. anthracis. In kind it is cell-based, Bacillus anthracis.
Assay [11] deals with E. coli k12. Briefly: microbe, parasite or virus in culture. In kind it is cell-based. Conditions: Escherichia coli, K12, read-out: MIC E. coli k12.

Regarding `CCOP(=O)(CCCN(OCCCCc1ccccc1)C(C)=O)OCC` [GSJ 26], the “MIC H37 Rv” value in assay [1] is “Some act 200”. For the same compound, the “Mtb MIC (ug/mL)” value in assay [1] is given as “SA 200”. For the same compound, the MIC is over 200 µg/mL in [2]; 100 µg/mL (≈ 259 µM) in assay [3]; over 200 µg/mL in [4]; over 200 µg/mL in assay [5]; 200 µg/mL (≈ 519 µM) in assay [6]; 200 µg/mL (≈ 519 µM) in assay [7]. Further, the MIC was over 200 µg/mL in [8], 200 µg/mL (≈ 519 µM) in assay [9], over 200 µg/mL in assay [10] and over 200 µg/mL in [11].
In the case of `CCOP(=O)(CCCN(O)C(=O)Cc1ccccc1)OCC` [ERJ 91], the MIC was over 200 µg/mL in assay [1] (read-out: MIC H37 Rv); over 200 µg/mL in assay [2]; 100 µg/mL (≈ 304 µM) in [3]; over 200 µg/mL in assay [4]; over 200 µg/mL in [5]; over 200 µg/mL in assay [6]. Besides, the MIC in assay [7] was 50 µg/mL (≈ 152 µM); in assay [8], over 200 µg/mL; in assay [9], over 200 µg/mL; in assay [10] it was over 200 µg/mL; in [11], over 200 µg/mL.
As to `CCOP(=O)(CCCN(OCc1ccccc1)C(C)=O)OCC` [GSJ 20 (Rotamer B)], the MIC in assay [1] (read-out: MIC H37 Rv), in assay [1] (read-out: Mtb MIC (ug/mL)), in assay [2], in assay [3], in assay [4] and in [5] was over 200 µg/mL in each case. Moreover, the MIC in assay [6], in assay [7], in assay [8], in [9], in [10] and in [11] was over 200 µg/mL throughout.
For `CCOP(=O)(CCCN(O)C(=O)CCc1ccccc1)OCC` [ERJ 70], the MIC in assay [1] (read-out: MIC H37 Rv) was over 200 µg/mL; in assay [1] (read-out: Mtb MIC (ug/mL) (7H9)) it was 3.12 µg/mL (≈ 9.1 µM); in assay [1] (read-out: Mtb MIC (ug/mL) (GAST)), over 200 µg/mL; in assay [2] it was over 200 µg/mL; in assay [3], over 200 µg/mL; in assay [4], over 200 µg/mL. In addition, the MIC in assay [5], in [6], in assay [7], in assay [8], in [9] and in assay [10] was over 200 µg/mL in each case. For the same compound, the MIC in assay [11] is over 200 µg/mL.
On to `CCOP(=O)(CCCN(OC(C)c1ccccc1)C(C)=O)OCC` (stereo not drawn) [GSJ 28], for which the MIC in assay [1] (read-out: MIC H37 Rv) is over 200 µg/mL; in assay [1] (read-out: Mtb MIC (ug/mL)), over 200 µg/mL; in [2], over 200 µg/mL; in assay [3], 100 µg/mL (≈ 280 µM); in assay [4] it was over 200 µg/mL; in assay [5] it was over 200 µg/mL. Also, the MIC in [6] was over 200 µg/mL; in assay [7] it was 50 µg/mL (≈ 140 µM); in [8] it was over 200 µg/mL; in [9], over 200 µg/mL; in assay [10], over 200 µg/mL; in assay [11] it was over 200 µg/mL.
